Assay results published in patent US6365759B1, “Intermediate compounds for preparing macrocylcic analogs” (Eisai Co., Ltd., priority 1998, dated 2002).
pIC50: −log10 of the molar value. Read-outs that look alike come from different tables or passages of the source.

Experiments:
[1] = tested on: DLD-1 human colon cancer cells; assay: in vitro cell growth inhibition assay using DLD-1 cells; assay type: cell-based
[2] = tested on: U937 human histiocytic lymphoma cells; assay: U937 Mitotic Block Reversibility Assay; assay type: cell-based; conditions: for Drug concentration required for complete mitotic block, 0 hour (before washout) / Drug concentration required for complete mitotic block, 10 hour (after washout): U937 cells; for reversibility of induced mitotic blocks: blocks sustained 10 hour after drug washout
[3] = Homo sapiens, DLD-1, read-out: DLD-1 mean IC50

| SMILES | pIC50 ([1]; read-out: DLD-1 mean IC50) | Complete Mitotic Block 0 hour [2] [nM] | Complete Mitotic Block 10 hour [2] [nM] | Reversibility Ratio [2] | other results |
| --- | --- | --- | --- | --- | --- |
| C=C1CC2CCC34CC5OC6C(OC7CCC(CC(=O)CC8C(CC9OC(CCC1O2)CC(C)C9=C)OC(CC(O)CNC(=O)Cc1cccnc1)C8OC)OC7C6O3)C5O4 (centres unmarked) [Compound B1940] | 8.27 | – | – | – | – |
| C=C1CC2CCC34CC5OC6C(OC7CCC(CC(=O)CC8C(CC9OC(CCC1O2)CC(C)C9=C)OC(CC(O)CN1CCOCC1)C8OC)OC7C6O3)C5O4 (centres unmarked) [ER803868] | 9.37 | 3 | 10 | 3.3 | – |
| C=C1C[C@@H]2CCC34CC5OC6C(OC7CCC(CC(=O)CC8C(CC9OC(CCC1O2)CC(C)C9=C)OC(CCO)C8OC)OC7C6O3)C5O4 (some centres unmarked) [Compound B2037] | – | – | – | – | pIC50 [1, 3]: 9.18 |
| C=C1CC2CCC34CC5OC6C(OC7CCC(CC(=O)CC8C(CC9OC(CCC1O2)CC(C)C9=C)OC(CC(CO)OCc1ccc(F)cc1)C8OC)OC7C6O3)C5O4 (centres unmarked) [Compound B2015] | – | – | – | – | pIC50 [1, 3]: 8.56 |
| CC[C@]1(O)C[C@H]2CN(CCc3c([nH]c4ccccc34)[C@@](C(=O)OC)(c3cc4c(cc3OC)N(C=O)[C@H]3[C@@](O)(C(=O)OC)[C@H](OC(C)=O)[C@]5(CC)C=CCN6CC[C@]43[C@@H]65)C2)C1 [Vincristine, reference compound] | – | – | – | – | Reversibility ratio ([2]; Table 2): 1; Drug concentration required for complete mitotic block, 0 hour (before washout) ([2]; Table 2): 10 nM; Drug concentration required for complete mitotic block, 10 hour (after washout) ([2]; Table 2): 10 nM; Interpretation ([2]; Table 2, reversibility of mitotic block): Irreversible; reversibility of induced mitotic blocks [2]: irreversible |
| C=C1CC2CCC34CC5OC6C(OC7CCC(CC(=O)CC8C(CC9OC(CCC1O2)CC(C)C9=C)OC(CC(O)CNC(CO)CO)C8OC)OC7C6O3)C5O4 (centres unmarked) [Compound B2490] | 7.45 | 100 | 100 | 1.0 | – |
| C=CC(F)(F)C(O)CC1OC2CC3OC(CCC4OC(CCC56CC7OC8C(OC9CCC(CC(=O)CC2C1OC)OC9C8O5)C7O6)CC4=C)CC(C)C3=C (centres unmarked) [Compound B2035] | – | – | – | – | pIC50 [1, 3]: 9.12 |
| C=C1CC2CCC34CC5OC6C(OC7CCC(CC(=O)CC8C(CC9OC(CCC1O2)CC(C)C9=C)OC(CC(O)CN(CC)CC)C8OC)OC7C6O3)C5O4 (centres unmarked) [ER803883] | 8.99 | 1 | 10 | 10.0 | – |
| C=C1CC2CCC34CC5OC6C(OC7CCC(CC(=O)CC8C(CC9OC(CCC1O2)CC(C)C9=C)OC(CC(O)CNC(=O)c1cc(OC)c(OC)c(OC)c1)C8OC)OC7C6O3)C5O4 (centres unmarked) [Compound B2004] | 9.20 | – | – | – | – |
| C=C1CC2CCC34CC5OC6C(OC7CCC(CC(=O)CC8C(CC9OC(CCC1O2)CC(C)C9=C)OC(C(O)CO)C8C)OC7C6O3)C5O4 (centres unmarked) [Compound B2090] | – | – | – | – | pIC50 [1, 3]: 9.28 |
| C=C1CC2CCC34CC5OC6C(OC7CCC(CC(=O)CC8C(CC9OC(CCC1O2)CC(C)C9=C)OC(CC(O)CN(CCO)CCO)C8OC)OC7C6O3)C5O4 (centres unmarked) [Compound B2489] | 7.83 | 10 | 10 | 1.0 | – |
| C=C1CC2CCC34CC5OC6C(OC7CCC(CC(=O)CC8C(CC9OC(CCC1O2)CC(C)C9=C)OC(CC(O)CNCCO)C8OC)OC7C6O3)C5O4 (centres unmarked) [Compound B2417] | 7.90 | 10 | 10 | 1.0 | – |
| C=C1CC2CCC34CC5OC6C(OC7CCC(CC(=O)CC8C(CC9OC(CCC1O2)CC(C)C9=C)OC(C(O)CN)C8C)OC7C6O3)C5O4 (centres unmarked) [Compound B2136] | – | 3 | 3 | 1.0 | pIC50 [1, 3]: 8.28 |
| C=C1CC2CCC34CC5OC6C(OC7CCC(CC(=O)CC8C(CC9OC(CCC1O2)CC(C)C9=C)OC(CC(O)CN1CCNCC1)C8OC)OC7C6O3)C5O4 (centres unmarked) [Compound B2418] | 8.44 | 10 | 10 | 1.0 | – |
| C=C1CC2CCC34CC5OC6C(OC7CCC(CC(=O)CC8C(CC9OC(CCC1O2)CC(C)C9=C)OC(CC(O)CN1CC[C@@H](O)C1)C8OC)OC7C6O3)C5O4 (some centres unmarked) [ER803836] | 8.71 | 3 | 10 | 3.3 | – |
| C=C1CC2CCC34CC5OC6C(OC7CCC(CC(=O)CC8C(CC9OC(CCC1O2)CC(C)C9=C)OC(CC(O)CNCc1ccc(Cl)cc1)C8OC)OC7C6O3)C5O4 (centres unmarked) [ER803884] | 9.23 | 1 | 10 | 10.0 | – |
| C=C1CC2CCC34CC5OC6C(OC7CCC(CC(=O)CC8C(CC9OC(CCC1O2)CC(C)C9=C)OC(CC(O)CNCc1ccccc1)C8OC)OC7C6O3)C5O4 (centres unmarked) [Compound B2491] | 9.04 | 2 | 10 | 6.7 | – |
| CC[C@]1(O)C[C@@H]2CN(CCc3c([nH]c4ccccc34)[C@@](C(=O)OC)(c3cc4c(cc3OC)N(C)[C@H]3[C@@](O)(C(=O)OC)[C@H](OC(C)=O)[C@]5(CC)C=CCN6CC[C@]43[C@@H]65)C2)C1 [Vinblastine, reference compound] | – | – | – | – | Reversibility ratio ([2]; Table 2): 60; Drug concentration required for complete mitotic block, 0 hour (before washout) ([2]; Table 2): 10 nM; Drug concentration required for complete mitotic block, 10 hour (after washout) ([2]; Table 2): 600 nM; reversibility of induced mitotic blocks [2]: highly reversible |
| C=C1CC2CCC34CC5OC6C(OC7CCC(CC(=O)CC8C(CC9OC(CCC1O2)CC(C)C9=C)OC(CC(O)COC(=O)Nc1ccc(OC)cc1)C8OC)OC7C6O3)C5O4 (centres unmarked) [Compound B1992] | 9.07 | – | – | – | – |

| SMILES | pIC50 ([1]; read-out: DLD-1 mean IC50) | Complete Mitotic Block 0 hour [2] [nM] | Complete Mitotic Block 10 hour [2] [nM] | Reversibility Ratio [2] | other results |
| --- | --- | --- | --- | --- | --- |
| C=C1CC2CCC34CC5OC6C(OC7CCC(CC(=O)CC8C(CC9OC(CCC1O2)CC(C)C9=C)OC(CC(O)CNCc1ccc(OC)cc1)C8OC)OC7C6O3)C5O4 (centres unmarked) [ER803845] | 8.82 | 3 | 10 | 3.3 | – |
| C=C1CC2CCC34CC5OC6C(OC7CCC(CC(=O)CC8C(CC9OC(CCC1O2)CC(C)C9=C)OC(CC(O)CNC(=O)c1ccc(Cl)cc1)C8OC)OC7C6O3)C5O4 (centres unmarked) [Compound B1991] | 9.16 | – | – | – | – |
| C=C1CC2CCC34CC5OC6C(OC7CCC(CC(=O)CC8C(CC9OC(CCC1O2)CC(C)C9=C)OC(CC(O)CNC(=O)C(=O)c1c[nH]c2ccccc12)C8OC)OC7C6O3)C5O4 (centres unmarked) [Compound B1987] | 8.74 | – | – | – | – |
| C=C1CC2CCC34CC5OC6C(OC7CCC(CC(=O)CC8C(CC9OC(CCC1O2)CC(C)C9=C)OC(CC(O)CN1CCC[C@@H]1CO)C8OC)OC7C6O3)C5O4 (some centres unmarked) [ER803852] | 8.52 | 3 | 10 | 3.3 | – |
| C=C1CC2CCC34CC5OC6C(OC7CCC(CC(=O)CC8C(CC9OC(CCC1O2)CC(C)C9=C)OC(CC(O)COC(=O)Nc1ccccc1)C8OC)OC7C6O3)C5O4 (centres unmarked) [Compound B1984] | 9.00 | – | – | – | – |
| C=C1CC2CCC34CC5OC6C(OC7CCC(CC(=O)CC8C(CC9OC(CCC1O2)CC(C)C9=C)OC(CC(O)CCO)C8OC)OC7C6O3)C5O4 (centres unmarked) [Compound B2091] | – | 3 | 30 | 10.0 | pIC50 [1, 3]: 8.87 |
| C=C1CC2CCC34CC5OC6C(OC7CCC(CC(=O)CC8C(CC9OC(CCC1O2)CC(C)C9=C)OC(CC(O)CN=[N+]=[N-])C8OC)OC7C6O3)C5O4 (centres unmarked) [Compound B1922] | – | 3 | 30 | 10.0 | pIC50 [1, 3]: 9.28 |
| C=C1C[C@@H]2CC[C@@]34C[C@H]5O[C@H]6[C@@H](O3)[C@H]3O[C@H](CC[C@@H]3O[C@@H]6[C@H]5O4)CC(=O)C[C@@H]3[C@@H](OC)[C@@H](C[C@H](O)CNC)O[C@H]3C[C@H]3O[C@@H](CC[C@@H]1O2)C[C@@H](C)C3=C [Compound B2336] | 8.48 | 10 | 10 | 1.0 | – |
| C=C1CC2CCC34CC5OC6C(OC7CCC(CC(=O)CC8C(CC9OC(CCC1O2)CC(C)C9=C)OC(CC(O)COCc1ccc(F)cc1)C8OC)OC7C6O3)C5O4 (centres unmarked) [Compound B2014] | – | – | – | – | pIC50 [1, 3]: 9.06 |
| C=C1CC2CCC34CC5OC6C(OC7CCC(CC(=O)CC8C(CC9OC(CCC1O2)CC(C)C9=C)OC(CC(O)CN1CCCC1)C8OC)OC7C6O3)C5O4 (centres unmarked) [ER803835] | 7.81 | 10 | 10 | 1.0 | – |
| C=C1CC2CCC34CC5OC6C(OC7CCC(CC(=O)CC8C(CC9OC(CCC1O2)CC(C)C9=C)OC(CC(O)COC(=O)Nc1ccc(Cl)cc1)C8OC)OC7C6O3)C5O4 (centres unmarked) [Compound B1990] | 8.89 | – | – | – | – |
| C=C1CC2CCC34CC5OC6C(OC7CCC(CC(=O)CC8C(CC9OC(CCC1O2)CC(C)C9=C)OC(CC(O)CNC(=O)C(=O)c1cc(OC)c(OC)c(OC)c1)C8OC)OC7C6O3)C5O4 (centres unmarked) [Compound B2003] | 8.92 | – | – | – | – |
| C=C1CC2CCC34CC5OC6C(OC7CCC(CC(=O)CC8C(CC9OC(CCC1O2)CC(C)C9=C)OC(CC(O)CO)C8OC)OC7C6O3)C5O4 (centres unmarked) [Compound B1794] | – | – | – | – | pIC50 ([1]; in vitro cell growth inhibition, DLD-1 human colon cancer cells, read-out: DLD-1 mean IC50): 7.91 |
| C=C1CC2CCC34CC5OC6C(OC7CCC(CC(=O)CC8C(CC9OC(CCC1O2)CC(C)C9=C)OC(CC(O)CC(O)CO)C8OC)OC7C6O3)C5O4 (centres unmarked) [Compound B2086] | – | – | – | – | pIC50 [1, 3]: 7.95 |
| C=C1C[C@@H]2CCC34CC5OC6C(OC7CCC(CC(=O)CC8C(CC9OC(CCC1O2)CC(C)C9=C)OC(CC(O)COS(C)(=O)=O)C8OC)OC7C6O3)C5O4 (some centres unmarked) [Compound B2294] | – | – | – | – | pIC50 [1, 3]: 9.10 |
| C=C1CC2CCC34CC5OC6C(OC7CCC(CC(=O)CC8C(CC9OC(CCC1O2)CC(C)C9=C)OC(CC(=O)CNC(=O)C(=O)c1ccccc1)C8OC)OC7C6O3)C5O4 (centres unmarked) [Compound B1988] | – | – | – | – | pIC50 [1, 3]: 8.57 |
| C=C1CC2CCC34CC5OC6C(OC7CCC(CC(=O)CC8C(CC9OC(CCC1O2)CC(C)C9=C)OC(CC(O)CNC(=O)Cc1ccccc1)C8OC)OC7C6O3)C5O4 (centres unmarked) [Compound B1973] | 8.94 | – | – | – | – |
| C=C1CC2CCC34CC5OC6C(OC7CCC(CC(=O)CC8C(CC9OC(CCC1O2)CC(C)C9=C)OC(CC(O)CNC(=O)C(=O)c1ccccc1)C8OC)OC7C6O3)C5O4 (centres unmarked) [Compound B1930] | 9.06 | – | – | – | – |
